≈ marks a conversion by molar mass, not a printed value.

This assay concerns M17-SYNwt cells. As to the kind of experiment: α-synuclein cytotoxicity assay (LDH leakage from paraquat-treated α-synuclein over-expressing neuroblastoma cells). Type of assay: cell-based, human. Conditions: for EC50 (µg/mL) / %I / EC50: paraquat 32 mM, 40 hours, LDH release; for EC50 (µg/mL) / EC50: 10 point curves in duplicate; for %I: percent inhibition of synuclein cytotoxicity at most effective concentration of test compound, relative to untreated paraquat cells; for EC50: Homo sapiens, Neuroblastoma cell. As for the experimental part: Subsequently, LDH activity was determined using Promega Cytotox 96 NonRadioactive cytotoxicity assay, (Cat. G1780) according the supplier's instructions.
This corresponds to the following equation: (LDHreleaseoftreatedparaquatcellsatnon-effectiveconcentrationoftestcmpd)−(LDHreleaseoftreatedparaquatcellsatmosteffectiveconcentrationoftestcmpd)/(LDHreleaseofuntreatedparaquatcells)−(LDHreleasecontrolcells)*100% [formula]
1,2,4-thiadazole compounds made according to the methods described herein were screened for activity using the α-synuclein cytotoxicity assay as described above. Dose responses were carried out on all compounds found to be active (10 point curves in duplicate).

On to “1-(3-methylbenzoyl)-4-[3-(4-methylbenzyl)-1,2,4-thiadiazol-5-yl]-2-methylpiperazine [Compound 144]”, for which the “EC50 (µg/mL)” value is listed as 0,56 µg/mL and the “%I” value was found to be 64%. On the same counts, the results for “1-(4-methoxybenzoyl)-4-[3-(4-methylbenzyl)-1,2,4-thiadiazol-5-yl]-2-methylpiperazine [Compound 130]” are 0,25 µg/mL and 118%. In the same order, the values of “1-(phenylprop-2-ensulfonyl)-4-[3-(4-fluorobenzyl)-1,2,4-thiadiazol-5-yl]piperazine [Compound 78]” are 0,13 µg/mL and 75%. In the case of “1-(phenylprop-2-ensulfonyl)-4-[3-(4-methylbenzyl)-1,2,4-thiadiazol-5-yl]-2-methylpiperazine [Compound 79]”, the “EC50 (µg/mL)” value is given as 0,17 µg/mL and the “%I” value was found to be 53%.

“1-(phenylprop-2-ensulfonyl)-4-[3-(4-methylbenzyl)-1,2,4-thiadiazol-5-yl]piperazine [Compound 80]”: the “EC50 (µg/mL)” value was 0,056880 µg/mL and the “%I” value was determined as 70%. In the case of “1-[3-trifluorophenylsulfonyl]-4-[3-(4-fluorobenzyl)-1,2,4-thiadiazol-5-yl]-2-methylpiperazine [Compound 46]”, the “EC50 (µg/mL)” value is on record as 1,34 µg/mL and the “%I” value was found to be 64%. “1-[4-bromophenylsulfonyl]-4-[3-(4-methylbenzyl)-1,2,4-thiadiazol-5-yl]-3-methylpiperazine [Compound 40]”: the “EC50 (µg/mL)” value was 0,099855 µg/mL and the “%I” value is 77%.

In the case of “2-phenyl-N-{2-[4-[3-(4-fluorobenzyl)-1,2,4-thiadiazol-5-yl]piperazin-1-yl]ethyl}butanamide [Compound 111]”, the “EC50 (µg/mL)” value was 1,79 µg/mL and the “%I” value turned out to be 79%. Also, under “Figure 2, dose response in paraquat-treated M17-SYNwt cells”, the “LDH activity in the medium” value is listed as “able, in a dose-dependent manner, to reduce LDH activity in the medium”. For “3-phenyl-N-{2-[4-[3-(4-fluorobenzyl)-1,2,4-thiadiazol-5-yl]piperazin-1-yl]ethyl}propanamide [Compound 112]”, the “EC50 (µg/mL)” value is reported as 0,55 µg/mL and the “%I” value was 91%. In the case of `O=C(Cc1ccccc1)N1CCN(c2nc(Cc3ccc(F)cc3)ns2)CC1` [Compound 1, 4-phenylacetyl-1-[3-(4-fluorobenzyl)-1,2,4-thiadiazol-5-yl]piperazine], the EC50 worked out at 0.15 µg/mL (≈ 0.378 µM) and the “%I” value stood at 75%. On the same counts, the results for `O=C(Cc1ccc(F)cc1)N1CCN(c2nc(Cc3ccc(F)cc3)ns2)CC1` [Compound 2, 4-(4-fluorophenylacetyl),1-[3-(4-fluorobenzyl)-1,2,4-thiadiazol-5-yl]piperazine] are 0.25 µg/mL (≈ 0.603 µM) and 54%. As to `Cc1ccc(Cc2nsc(N3CCN(C(=O)Cc4ccc(F)cc4)C(C)C3)n2)cc1` (stereo not shown) [Compound 3, 1-(4-fluorophenylacetyl)-4-[3-(4-methylbenzyl)-1,2,4-thiadiazol-5-yl]-2-methylpiperazine], the EC50 was determined as 2.2 µg/mL (≈ 5.18 µM) and the “%I” value is listed as 76%.

Turning to `COc1ccc(CC(=O)N2CCN(c3nc(Cc4ccc(F)cc4)ns3)CC2C)cc1` (stereo not shown) [Compound 4, 1-(4-methoxyphenylacetyl)-4-[3-(4-fluorobenzyl)-1,2,4-thiadiazol-5-yl]-2-methylpiperazine], the EC50 turned out to be 0.82 µg/mL (≈ 1.86 µM) and the “%I” value turned out to be 56%. `CC1CN(c2nc(Cc3ccc(F)cc3)ns2)CCN1C(=O)Cc1ccccc1` (stereo not shown) [Compound 5, 1-phenylacetyl-4-[3-(4-fluorobenzyl)-1,2,4-thiadiazol-5-yl]-2-methylpiperazine]: the “%I” value was 83%. Still for that read-out and setting: in the case of `CC1CN(c2nc(Cc3ccc(F)cc3)ns2)CCN1C(=O)Cc1ccc(F)cc1` (stereo not shown) [Compound 6, 1-(4-fluorophenylacetyl)-4-[3-(4-fluorobenzyl)-1,2,4-thiadiazol-5-yl]-2-methylpiperazine] it was 75%; in that of `CC1CN(c2nc(Cc3ccc(F)cc3)ns2)CCN1C(=O)C(Cl)c1ccccc1` (stereo not shown) [Compound 7, 1-[chloro(phenyl)acetyl]-4-[3-(4-fluorobenzyl)-1,2,4-thiadiazol-5-yl]-2-methylpiperazine], 69%. With `CCC(C(=O)N1CCN(c2nc(Cc3ccc(F)cc3)ns2)CC1C)c1ccccc1` (stereo not shown) [Compound 8, 1-(2-phenylbutanoyl)-4-[3-(4-fluorobenzyl)-1,2,4-thiadiazol-5-yl]-2-methylpiperazine], it took 1.49 µg/mL (≈ 3.4 µM) to reach a half-maximal effect (EC50) and the “%I” value came to 71%. As to `O=C(Nc1cccc(F)c1)N1CCN(c2nc(Cc3ccc(F)cc3)ns2)CC1` [Compound 9, N-(3-fluorophenyl)-4-[3-(4-fluorobenzyl)-1,2,4-thiadiazol-5-yl]piperazine-1-carboxamide], a half-maximal effect (EC50) was put at 0.52 µg/mL (≈ 1.25 µM) and the “%I” value is recorded as 53%. On the same counts, the results for `Cc1ccccc1NC(=O)N1CCN(c2nc(Cc3ccc(F)cc3)ns2)CC1C` (stereo not shown) [Compound 10, N-(2-methylphenyl)-4-[3-(4-fluorobenzyl)-1,2,4-thiadiazol-5-yl]-2-methylpiperazine-1-carboxamide] are 0.6 µg/mL (≈ 1.41 µM) and 72%.

Consider `CCc1ccc(NC(=O)N2CCN(c3nc(Cc4ccc(F)cc4)ns3)CC2C)cc1` (stereo not shown) [Compound 11, N-(4-ethylphenyl)-4-[3-(4-fluorobenzyl)-1,2,4-thiadiazol-5-yl]-2-methylpiperazine-1-carboxamide], for which the midpoint of the response, the EC50, lay at 0.69 µg/mL (≈ 1.57 µM) and the “%I” value was 73%. As to `CCc1ccccc1NC(=O)N1CCN(c2nc(Cc3ccc(F)cc3)ns2)CC1C` (stereo not shown) [Compound 12, N-(2-ethylphenyl)-4-[3-(4-fluorobenzyl)-1,2,4-thiadiazol-5-yl]-2-methylpiperazine-1-carboxamide], the response was half-maximal at 0.89 µg/mL (≈ 2.02 µM) (EC50) and the “%I” value came to 92%. On the same counts, the results for `O=C(Nc1ccccc1)N1CCN(c2nc(Cc3ccc(F)cc3)ns2)CC1` [Compound 13, N-phenyl-4-[3-(4-fluorobenzyl)-1,2,4-thiadiazol-5-yl]piperazine-1-carboxamide] are 1.23 µg/mL (≈ 3.09 µM) and 71%. In the same order, the values of `CCOc1ccc(NC(=O)N2CCN(c3nc(Cc4ccc(F)cc4)ns3)CC2C)cc1` (stereo not shown) [Compound 14, N-(4-ethoxyphenyl)-4-[3-(4-fluorobenzyl)-1,2,4-thiadiazol-5-yl]-2-methylpiperazine-1-carboxamide] are 1.73 µg/mL (≈ 3.8 µM) and 70%.

With `Cc1ccccc1NC(=O)N1CCN(c2nc(Cc3ccc(F)cc3)ns2)CC1` [Compound 15, N-(2-methylphenyl)-4-[3-(4-fluorobenzyl)-1,2,4-thiadiazol-5-yl]piperazine-1-carboxamide], a half-maximal response (EC50) required 5.01 µg/mL (≈ 12.2 µM) and the “%I” value amounted to 65%.

On to `O=C(Nc1ccccc1F)N1CCN(c2nc(Cc3ccc(F)cc3)ns2)CC1` [Compound 16, N-(2-fluorophenyl)-4-[3-(4-fluorobenzyl)-1,2,4-thiadiazol-5-yl]piperazine-1-carboxamide], for which the EC50 worked out at 5.68 µg/mL (≈ 13.7 µM) and the “%I” value is reported as 72%. Turning to `O=C(Nc1ccccc1C(F)(F)F)N1CCN(c2nc(Cc3ccc(F)cc3)ns2)CC1` [Compound 17, N-(2-trifluoromethylphenyl)-4-[3-(4-fluorobenzyl)-1,2,4-thiadiazol-5-yl]piperazine-1-carboxamide], the “%I” value was determined as 46%.

The values are drawn from patent publication EP1981504B1, “THIADIAZOLE DERIVATIVES FOR THE TREATMENT OF NEURO DEGENERATIVE DISEASES” (NV reMYND, priority 2006, dated 2007).
